Values quoted from earlier work, collected in patent publication US20070043030A1, “Pharmaceutical compositions for treating premature ejaculation by pulmonary inhalation” (Vectura Limited, priority 2003, published 2007).

Experiments:
rapid ejaculation = conditions: daily oral doses of 25-50 mg
[1] = tested on: male patients with primary PE; conditions: oral, 3 to 5 hours before planned intercourse, 4-week treatment period
[2] = oral formulation used for antidepressive indications
ejaculation = conditions: oral administration

Compound	efficacy in primary PE [1]	delay in ejaculation (ejaculation)	also measured
CN(C)CCCN1c2ccccc2CCc2ccc(Cl)cc21 [clomipramine, 3-chloro-5-[3-(dimethylamino)-propyl]-10,11-dihydro-5H-dibenz[b,f]azepine]	comparable efficacy	–	time of peak plasma levels after dosage (oral administration): two; effect on ejaculatory latency (rapid ejaculation): effective in significantly lengthening ejaculatory latencies; frequency of frequently reported side effects (dry mouth, sweating, constipation, blurred vision, nausea, drowsiness, headache, dizziness) [2]: > 10%
CNCCCN1c2ccccc2CCc2ccc(Cl)cc21 [desmethylclomipramine]	–	–	plasma half-life (oral dose (clomipramine: single oral dose)): around 36 hours
CNCCC(Oc1ccc(C(F)(F)F)cc1)c1ccccc1 (centres unmarked) [fluoxetine]	–	effective in producing a delay in ejaculation	–
Fc1ccc([C@@H]2CCNC[C@H]2COc2ccc3c(c2)OCO3)cc1 [paroxetine]	comparable efficacy	effective in producing a delay in ejaculation	–
CN[C@H]1CC[C@@H](c2ccc(Cl)c(Cl)c2)c2ccccc21 [sertraline]	comparable efficacy	effective in producing a delay in ejaculation	–
CCCc1nn(C)c2c(=O)[nH]c(-c3cc(S(=O)(=O)N4CCN(C)CC4)ccc3OCC)nc12 [sildenafil]	optimal efficacy	–	–
